Results reported in BindingDB's records for doi:10.1016/s0960-894x(99)00004-9 (Smithkline Beecham Pharmaceuticals, 1999).

Assays:
[1] = Inhibitory activity against Varicella Zoster Virus (VZV) protease was determined using quenched fluorescence assay
[2] = Inhibitory activity against cytomegalovirus (CMV) protease was determined using quenched fluorescence assay

SMILES: Cc1csc2nc([C@H](C)NC(=O)/C=C/c3c(F)cccc3Cl)oc(=O)c12 [(E)-3-(2-Chloro-6-fluoro-phenyl)-N-[(S)-1-(5-methyl-4-oxo-4H-thieno[2,3-d][1,3]oxazin-2-yl)-ethyl]-acrylamide]
- IC50 [1]: 36 nM
- IC50 [2]: 2000 nM

SMILES: Cc1cc(/C=C/C(=O)N[C@@H](C)c2nc3scc(C)c3c(=O)o2)c(C)s1 [(E)-3-(2,5-Dimethyl-thiophen-3-yl)-N-[(S)-1-(5-methyl-4-oxo-4H-thieno[2,3-d][1,3]oxazin-2-yl)-ethyl]-acrylamide]
- IC50 [1]: 7 nM
- IC50 [2]: 230 nM

SMILES: Cc1csc2nc([C@H](C)NC(=O)/C=C/c3ccnc4ccccc34)oc(=O)c12 [(E)-N-[(S)-1-(5-Methyl-4-oxo-4H-thieno[2,3-d][1,3]oxazin-2-yl)-ethyl]-3-quinolin-4-yl-acrylamide]
- IC50 [1]: 19 nM
- IC50 [2]: 1100 nM

SMILES: Cc1ccsc1/C=C/C(=O)N[C@@H](C)c1nc2scc(C)c2c(=O)o1 [(E)-N-[(S)-1-(5-Methyl-4-oxo-4H-thieno[2,3-d][1,3]oxazin-2-yl)-ethyl]-3-(3-methyl-thiophen-2-yl)-acrylamide]
- IC50 [1]: 290 nM
- IC50 [2]: 670 nM

SMILES: Cc1csc2nc([C@H](C)NC(=O)/C=C/c3ccccn3)oc(=O)c12 [(E)-N-[(S)-1-(5-Methyl-4-oxo-4H-thieno[2,3-d][1,3]oxazin-2-yl)-ethyl]-3-pyridin-2-yl-acrylamide]
- IC50 [1]: 170 nM
- IC50 [2]: 1240 nM

SMILES: Cc1csc2nc([C@H](C)NC(=O)/C=C/c3ccc(Br)s3)oc(=O)c12 [(E)-3-(5-Bromo-thiophen-2-yl)-N-[(S)-1-(5-methyl-4-oxo-4H-thieno[2,3-d][1,3]oxazin-2-yl)-ethyl]-acrylamide]
- IC50 [1]: 8 nM
- IC50 [2]: 210 nM

SMILES: Cc1csc2nc([C@H](C)NC(=O)/C=C/c3ccc(Cl)s3)oc(=O)c12 [(E)-3-(5-Chloro-thiophen-2-yl)-N-[(S)-1-(5-methyl-4-oxo-4H-thieno[2,3-d][1,3]oxazin-2-yl)-ethyl]-acrylamide]
- IC50 [1]: 17 nM
- IC50 [2]: 280 nM

SMILES: Cc1csc2nc([C@H](C)NC(=O)/C=C/c3ccccc3[N+](=O)[O-])oc(=O)c12 [(E)-N-[(S)-1-(5-Methyl-4-oxo-4H-thieno[2,3-d][1,3]oxazin-2-yl)-ethyl]-3-(2-nitro-phenyl)-acrylamide]
- IC50 [1]: 76 nM
- IC50 [2]: 2200 nM

SMILES: Cc1csc2nc([C@H](C)NC(=O)/C=C/c3ccsc3)oc(=O)c12 [(E)-N-[(S)-1-(5-Methyl-4-oxo-4H-thieno[2,3-d][1,3]oxazin-2-yl)-ethyl]-3-thiophen-3-yl-acrylamide]
- IC50 [1]: 89 nM

SMILES: Cc1csc2nc([C@H](C)NC(=O)/C=C/c3ccccc3Br)oc(=O)c12 [(E)-3-(2-Bromo-phenyl)-N-[(S)-1-(5-methyl-4-oxo-4H-thieno[2,3-d][1,3]oxazin-2-yl)-ethyl]-acrylamide]
- IC50 [1]: 39 nM
- IC50 [2]: 380 nM

SMILES: Cc1csc2nc([C@H](C)NC(=O)/C=C/c3ccc(N(C)C)cc3)oc(=O)c12 [(E)-3-(4-Dimethylamino-phenyl)-N-[(S)-1-(5-methyl-4-oxo-4H-thieno[2,3-d][1,3]oxazin-2-yl)-ethyl]-acrylamide]
- IC50 [1]: 38 nM
- IC50 [2]: 1800 nM

SMILES: COc1cc(/C=C/C(=O)N[C@@H](C)c2nc3scc(C)c3c(=O)o2)cc(OC)c1 [(E)-3-(3,5-Dimethoxy-phenyl)-N-[(S)-1-(5-methyl-4-oxo-4H-thieno[2,3-d][1,3]oxazin-2-yl)-ethyl]-acrylamide]
- IC50 [1]: 21 nM
- IC50 [2]: 8500 nM

SMILES: COc1cccc(OC)c1/C=C/C(=O)N[C@@H](C)c1nc2scc(C)c2c(=O)o1 [(E)-3-(2,6-Dimethoxy-phenyl)-N-[(S)-1-(5-methyl-4-oxo-4H-thieno[2,3-d][1,3]oxazin-2-yl)-ethyl]-acrylamide]
- IC50 [1]: 180 nM
- IC50 [2]: 21000 nM

SMILES: Cc1ccc(/C=C/C(=O)N[C@@H](C)c2nc3scc(C)c3c(=O)o2)s1 [(E)-N-[(S)-1-(5-Methyl-4-oxo-4H-thieno[2,3-d][1,3]oxazin-2-yl)-ethyl]-3-(5-methyl-thiophen-2-yl)-acrylamide]
- IC50 [1]: 33 nM
- IC50 [2]: 580 nM

SMILES: Cc1csc2nc([C@H](C)NC(=O)/C=C/c3c(F)cccc3F)oc(=O)c12 [(E)-3-(2,6-Difluoro-phenyl)-N-[(S)-1-(5-methyl-4-oxo-4H-thieno[2,3-d][1,3]oxazin-2-yl)-ethyl]-acrylamide]
- IC50 [1]: 60 nM
- IC50 [2]: 1700 nM

SMILES: Cc1csc2nc([C@H](C)NC(=O)/C=C/c3ccc(C=O)cc3)oc(=O)c12 [(E)-3-(4-Formyl-phenyl)-N-[(S)-1-(5-methyl-4-oxo-4H-thieno[2,3-d][1,3]oxazin-2-yl)-ethyl]-acrylamide]
- IC50 [1]: 94 nM
- IC50 [2]: 2400 nM

SMILES: Cc1csc2nc([C@H](C)NC(=O)/C=C(\c3ccccc3)c3cccs3)oc(=O)c12 [(E)-N-[(S)-1-(5-Methyl-4-oxo-4H-thieno[2,3-d][1,3]oxazin-2-yl)-ethyl]-3-phenyl-3-thiophen-2-yl-acrylamide]
- IC50 [1]: 16 nM
- IC50 [2]: 300 nM

SMILES: Cc1csc2nc([C@H](C)NC(=O)/C=C/c3ccsc3Br)oc(=O)c12 [(E)-3-(2-Bromo-thiophen-3-yl)-N-[(S)-1-(5-methyl-4-oxo-4H-thieno[2,3-d][1,3]oxazin-2-yl)-ethyl]-acrylamide]
- IC50 [1]: 51 nM
- IC50 [2]: 620 nM

SMILES: Cc1csc2nc([C@H](C)NC(=O)/C=C/c3ccc([N+](=O)[O-])s3)oc(=O)c12 [(E)-N-[(S)-1-(5-Methyl-4-oxo-4H-thieno[2,3-d][1,3]oxazin-2-yl)-ethyl]-3-(5-nitro-thiophen-2-yl)-acrylamide]
- IC50 [1]: 54 nM
- IC50 [2]: 900 nM

SMILES: Cc1csc2nc([C@H](C)NC(=O)/C=C/c3sccc3Br)oc(=O)c12 [(E)-3-(3-Bromo-thiophen-2-yl)-N-[(S)-1-(5-methyl-4-oxo-4H-thieno[2,3-d][1,3]oxazin-2-yl)-ethyl]-acrylamide]
- IC50 [1]: 58 nM
- IC50 [2]: 1110 nM

SMILES: Cc1csc2nc([C@H](C)NC(=O)/C=C/c3cc(Br)cs3)oc(=O)c12 [(E)-3-(4-Bromo-thiophen-2-yl)-N-[(S)-1-(5-methyl-4-oxo-4H-thieno[2,3-d][1,3]oxazin-2-yl)-ethyl]-acrylamide]
- IC50 [1]: 33 nM
- IC50 [2]: 1120 nM

SMILES: Cc1csc2nc([C@H](C)NC(=O)/C=C/c3cccc(Cl)c3)oc(=O)c12 [(E)-3-(3-Chloro-phenyl)-N-[(S)-1-(5-methyl-4-oxo-4H-thieno[2,3-d][1,3]oxazin-2-yl)-ethyl]-acrylamide]
- IC50 [1]: 42 nM

SMILES: CCOc1ccccc1/C=C/C(=O)N[C@@H](C)c1nc2scc(C)c2c(=O)o1 [(E)-3-(2-Ethoxy-phenyl)-N-[(S)-1-(5-methyl-4-oxo-4H-thieno[2,3-d][1,3]oxazin-2-yl)-ethyl]-acrylamide]
- IC50 [1]: 15 nM
- IC50 [2]: 510 nM

SMILES: Cc1csc2nc([C@H](C)NC(=O)C=C(c3cccs3)c3cccs3)oc(=O)c12 [N-[(S)-1-(5-Methyl-4-oxo-4H-thieno[2,3-d][1,3]oxazin-2-yl)-ethyl]-3,3-di-thiophen-2-yl-acrylamide]
- IC50 [1]: 42 nM
- IC50 [2]: 250 nM

SMILES: Cc1csc2nc([C@H](C)NC(=O)C=C(c3ccccc3)c3ccccc3)oc(=O)c12 [N-[(S)-1-(5-Methyl-4-oxo-4H-thieno[2,3-d][1,3]oxazin-2-yl)-ethyl]-3,3-diphenyl-acrylamide]
- IC50 [1]: 37 nM
- IC50 [2]: 910 nM

SMILES: Cc1csc2nc([C@H](C)NC(=O)/C=C/c3c(Cl)cccc3Cl)oc(=O)c12 [(E)-3-(2,6-Dichloro-phenyl)-N-[(S)-1-(5-methyl-4-oxo-4H-thieno[2,3-d][1,3]oxazin-2-yl)-ethyl]-acrylamide]
- IC50 [1]: 10 nM
- IC50 [2]: > 34000 nM

SMILES: Cc1csc2nc([C@H](C)NC(=O)/C=C/c3cccn3C)oc(=O)c12 [(E)-N-[(S)-1-(5-Methyl-4-oxo-4H-thieno[2,3-d][1,3]oxazin-2-yl)-ethyl]-3-(1-methyl-1H-pyrrol-2-yl)-acrylamide]
- IC50 [1]: 29 nM
- IC50 [2]: 220 nM

SMILES: Cc1csc2nc([C@H](C)NC(=O)/C=C/c3ccc(Br)o3)oc(=O)c12 [(E)-3-(5-Bromo-furan-2-yl)-N-[(S)-1-(5-methyl-4-oxo-4H-thieno[2,3-d][1,3]oxazin-2-yl)-ethyl]-acrylamide]
- IC50 [1]: 41 nM
- IC50 [2]: 180 nM

SMILES: Cc1csc2nc([C@H](C)NC(=O)/C=C/c3ccccc3)oc(=O)c12 [(E)-N-[(S)-1-(5-Methyl-4-oxo-4H-thieno[2,3-d][1,3]oxazin-2-yl)-ethyl]-3-phenyl-acrylamide]
- IC50 [1]: 38 nM
- IC50 [2]: 500 nM

SMILES: Cc1csc2nc([C@H](C)NC(=O)/C=C/c3ccccc3Cl)oc(=O)c12 [(E)-3-(2-Chloro-phenyl)-N-[(S)-1-(5-methyl-4-oxo-4H-thieno[2,3-d][1,3]oxazin-2-yl)-ethyl]-acrylamide]
- IC50 [1]: 35 nM
- IC50 [2]: 380 nM

SMILES: Cc1csc2nc([C@H](C)NC(=O)/C=C/c3ccc([N+](=O)[O-])cc3)oc(=O)c12 [(E)-N-[(S)-1-(5-Methyl-4-oxo-4H-thieno[2,3-d][1,3]oxazin-2-yl)-ethyl]-3-(4-nitro-phenyl)-acrylamide]
- IC50 [1]: 60 nM
- IC50 [2]: 3600 nM

SMILES: Cc1csc2nc([C@H](C)NC(=O)/C=C/c3ccc(O)cc3Cl)oc(=O)c12 [(E)-3-(2-Chloro-4-hydroxy-phenyl)-N-[(S)-1-(5-methyl-4-oxo-4H-thieno[2,3-d][1,3]oxazin-2-yl)-ethyl]-acrylamide]
- IC50 [1]: 15 nM

SMILES: Cc1ccccc1/C=C/C(=O)N[C@@H](C)c1nc2scc(C)c2c(=O)o1 [(E)-N-[(S)-1-(5-Methyl-4-oxo-4H-thieno[2,3-d][1,3]oxazin-2-yl)-ethyl]-3-o-tolyl-acrylamide]
- IC50 [1]: 36 nM
